Measured values from paper PMC12468313, “Use of Amplified Lewy Body Dementia Fibrils and Autoradiography to Characterize Binding of Radioligand Tg-1-90B to Alpha-Synuclein Fibrils in Postmortem Brain Tissue” (Cells, 2025).

Legend:
[1] = molecular target: T1, IVTris fibrils (recombinant Asyn PFF) (Homo sapiens, UniProt P37840); assay: [3H]Tg-1-90B saturation binding assay with IVTris fibrils; details: 250 nM fibrils
T1 construct: made in house
Protocol: (§1) IVTris fibrils were assembled in vitro by spontaneous nucleation in 20 mM Tris-HCl, pH 8.0, 100 mM NaCl buffer in a total volume of 1500 µL at 2 mg/mL monomer concentration. The incubation was carried out at 37 °C with continuous shaking at 1000 rpm in a Thermomixer (Eppendorf, Framingham, MA, USA) for 72 h. Amplified LBD fibrils were prepared as described in Dhavale et al. and case LBD1 amplified fibrils were used in this study. PD, disease-control and AD insoluble fraction (IF) tissue homogenate was prepared by sequential homogenization of dissected tissue gray matter in a series of detergents followed by centrifugation to obtain insoluble fraction. […]
(§2) A fixed concentration of binding substrates IVTris fibrils (250 nM), amplified LBD fibrils (50 nM), Aβ fibrils (150 nM), tau fibrils (150 nM), PD, AD or disease control homogenate (10 µg/mL) were incubated for 2 h at 37 °C with increasing concentrations of [^3H]Tg-1-90B in a reaction volume of 150 µL in a 96-well plate. […] Filters containing the bound ligand were mixed with 150 µL of Optiphase Supermix scintillation cocktail (PerkinElmer, Waltham, MA, USA) and counted following overnight incubation. […] The dissociation constant (Kd) and the maximal number of binding sites (Bmax) values were determined by fitting the data to the equation Y = Bmax × X/(X + Kd) by non-linear regression using Graphpad Prism software (version 7.0).

[2] = molecular target: T2, amplified LBD fibrils (PDB 8FPT) alpha-synuclein (Homo sapiens, UniProt P37840); assay: [3H]Tg-1-90B saturation binding assay with amplified LBD fibrils; details: 50 nM fibrils
T2 construct: made in house
Protocol: as §1, §2

COc1ccc(/C=C/c2cc(-c3nccs3)on2)cc1 [Tg-1-90B]
Kd ([1]; 2 h 37 °C, one site saturable specific binding): 0.0401 ± 0.0019 µM
average Bmax, IVTris fibrils ([1]; per nmol Asyn): 22.3 ± 0.1 pmol/nmol
Kd ([2]; 2 h 37 °C): 0.0175 µM
average Bmax, amplified LBD fibrils ([2]; per nmol Asyn): 20.6 ± 2.5 pmol/nmol
